Results reported in ChEMBL document CHEMBL3526155, “Endoxifen, the active metabolite of tamoxifen, is a substrate of the efflux transporter P-glycoprotein (multidrug resistance 1)” (Drug Metab Dispos, 2011).

Experiments:
[1] = biological target: T1, MDR1 (ABCB1) (Homo sapiens, UniProt P08183); assay: Activity of human MDR1 expressed in pig LLC-PK cells assessed as apparent permeability from basolateral to apical side at 5 uM after 1 to 4 hrs by LC-MS/MS analysis; format: ADME, cell-based; settings: LLC-PK1
[2] = system: Brain; assay: Drug uptake in wild-type CF-1 mouse brain at 5 mg/kg, po after 0.5 to 4 hrs by LC-MS/MS analysis; format: ADME, organism-based; design: dose 5 mg/kg, route oral; settings: in vivo
[3] = system: Brain; assay: Drug uptake in MDR1A-deficient CF-1 mouse brain at 5 mg/kg, po after 0.5 to 4 hrs by LC-MS/MS analysis relative to wild-type; format: ADME, organism-based; design: dose 5 mg/kg, route oral; settings: in vivo
[4] = biological target: T1, MDR1 (ABCB1); assay: Activity of human MDR1 expressed in pig LLC-PK cells assessed as efflux ratio of apparent permeability from basolateral to apical to apical to basolateral side at 5 uM after 1 to 4 hrs by LC-MS/MS analysis; format: ADME, cell-based; settings: LLC-PK1
[5] = system: Liver; assay: Drug uptake in MDR1A-deficient CF-1 mouse liver at 5 mg/kg, po after 0.5 to 4 hrs by LC-MS/MS analysis; format: ADME, organism-based; design: dose 5 mg/kg, route oral; settings: in vivo
[6] = system: Plasma; assay: Drug uptake in wild-type CF-1 mouse plasma at 5 mg/kg, po after 0.5 to 4 hrs by LC-MS/MS analysis; format: ADME, organism-based; design: dose 5 mg/kg, route oral; settings: in vivo
[7] = Apparent permeability from basolateral to apical side in pig LLC-PK cells at 5 uM after 1 to 4 hrs by LC-MS/MS analysis; format: ADME, cell-based, Sus scrofa; settings: LLC-PK1
[8] = system: Liver; assay: Drug uptake in wild-type CF-1 mouse liver at 5 mg/kg, po after 0.5 to 4 hrs by LC-MS/MS analysis; format: ADME, organism-based; design: dose 5 mg/kg, route oral; settings: in vivo
[9] = biological target: T1, MDR1 (ABCB1); assay: Activity of human MDR1 expressed in pig LLC-PK cells assessed as apparent permeability from apical to basolateral side at 5 uM after 1 to 4 hrs by LC-MS/MS analysis; format: ADME, cell-based; settings: LLC-PK1
[10] = Ratio of drug level in brain to plasma in MDR1A-deficient CF-1 mouse at 5 mg/kg, po after 0.5 to 4 hrs by LC-MS/MS analysis; format: ADME, organism-based; design: dose 5 mg/kg, route oral; settings: read-out: BPR
[11] = Efflux ratio of apparent permeability from basolateral to apical to apical to basolateral side in pig LLC-PK cells at 5 uM after 1 to 4 hrs by LC-MS/MS analysis; format: ADME, cell-based, Sus scrofa; settings: LLC-PK1
[12] = system: Plasma; assay: Drug uptake in MDR1A-deficient CF-1 mouse plasma at 5 mg/kg, po after 0.5 to 4 hrs by LC-MS/MS analysis; format: ADME, organism-based; design: dose 5 mg/kg, route oral; settings: in vivo
[13] = Apparent permeability from apical to basolateral side in pig LLC-PK cells at 5 uM after 1 to 4 hrs by LC-MS/MS analysis; format: ADME, cell-based, Sus scrofa; settings: LLC-PK1
[14] = system: Brain; assay: Drug uptake in MDR1A-deficient CF-1 mouse brain at 5 mg/kg, po after 0.5 to 4 hrs by LC-MS/MS analysis; format: ADME, organism-based; design: dose 5 mg/kg, route oral; settings: in vivo

T1 sequence (P08183 whole entry): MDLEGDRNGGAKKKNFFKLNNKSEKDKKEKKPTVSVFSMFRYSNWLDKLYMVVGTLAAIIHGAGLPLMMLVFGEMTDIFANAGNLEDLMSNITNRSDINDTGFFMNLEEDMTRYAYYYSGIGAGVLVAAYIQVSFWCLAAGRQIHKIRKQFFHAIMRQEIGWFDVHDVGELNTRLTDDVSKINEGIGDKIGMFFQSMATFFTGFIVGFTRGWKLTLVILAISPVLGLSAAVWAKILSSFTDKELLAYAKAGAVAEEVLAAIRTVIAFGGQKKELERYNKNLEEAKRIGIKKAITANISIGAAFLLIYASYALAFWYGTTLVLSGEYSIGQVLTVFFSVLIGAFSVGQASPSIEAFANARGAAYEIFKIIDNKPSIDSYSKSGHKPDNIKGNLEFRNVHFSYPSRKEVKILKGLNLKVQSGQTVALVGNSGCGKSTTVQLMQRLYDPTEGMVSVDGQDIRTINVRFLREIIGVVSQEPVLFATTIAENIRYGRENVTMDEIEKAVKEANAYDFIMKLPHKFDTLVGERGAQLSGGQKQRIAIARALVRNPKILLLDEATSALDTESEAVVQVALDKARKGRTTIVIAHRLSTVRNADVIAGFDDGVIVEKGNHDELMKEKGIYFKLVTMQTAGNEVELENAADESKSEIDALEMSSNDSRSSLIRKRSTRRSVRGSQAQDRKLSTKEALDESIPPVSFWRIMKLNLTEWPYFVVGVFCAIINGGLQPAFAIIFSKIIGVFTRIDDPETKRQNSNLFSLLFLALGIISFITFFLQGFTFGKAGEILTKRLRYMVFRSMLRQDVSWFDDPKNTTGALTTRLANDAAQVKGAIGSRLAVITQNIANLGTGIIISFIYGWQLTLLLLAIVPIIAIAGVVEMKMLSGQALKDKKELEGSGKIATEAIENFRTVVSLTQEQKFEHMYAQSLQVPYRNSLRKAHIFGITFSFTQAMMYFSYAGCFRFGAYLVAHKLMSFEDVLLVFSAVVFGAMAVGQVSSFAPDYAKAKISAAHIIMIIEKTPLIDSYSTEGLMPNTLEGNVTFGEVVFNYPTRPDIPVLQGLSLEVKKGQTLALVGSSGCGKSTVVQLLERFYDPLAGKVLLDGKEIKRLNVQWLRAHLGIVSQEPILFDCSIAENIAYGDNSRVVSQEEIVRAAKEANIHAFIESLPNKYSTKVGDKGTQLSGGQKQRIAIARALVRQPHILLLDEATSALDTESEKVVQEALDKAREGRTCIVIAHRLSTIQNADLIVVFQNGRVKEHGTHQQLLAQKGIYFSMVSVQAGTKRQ

| Compound | Papp B→A at 5 µM [1] [×10⁻⁶ cm/s] | Drug uptake [2] | Ratio [3] | efflux ratio at 5 µM [4] | Drug uptake [5] | Drug uptake [6] | Papp B→A at 5 µM [7] [×10⁻⁶ cm/s] | Drug uptake [8] | Papp A→B at 5 µM [9] [×10⁻⁶ cm/s] | Kp [10] | efflux ratio at 5 µM [11] | Drug uptake [12] | Papp A→B at 5 µM [13] [×10⁻⁶ cm/s] | Drug uptake [14] |
| --- | --- | --- | --- | --- | --- | --- | --- | --- | --- | --- | --- | --- | --- | --- |
| C[C@H]1O[C@@H](O[C@H]2[C@@H](O)C[C@H](O[C@H]3[C@@H](O)C[C@H](O[C@H]4CC[C@@]5(C)[C@H](CC[C@@H]6[C@@H]5C[C@@H](O)[C@]5(C)[C@@H](C7=CC(=O)OC7)CC[C@]65O)C4)O[C@@H]3C)O[C@@H]2C)C[C@H](O)[C@@H]1O [DIGOXIN] | 6.74 | – | – | – | – | – | – | – | – | – | – | – | – | – |
| CC/C(=C(\c1ccc(O)cc1)c1ccc(OCCNC)cc1)c1ccccc1 [ENDOXIFEN] | 2.77 | Active | 20 | 2.67 | Active | Active | 2.15 | Active | 1.1 | > 10 | 1.07 | Active | 1.83 | Active |
